Measured values as given in ChEMBL document CHEMBL5608163, “Structure modification of anoplin for fighting resistant bacteria” (Eur J Med Chem, 2024).
Values after ≈ are worked out from the molar mass of the structure shown. Square brackets hold non-standard residues; d marks the D form. Peptide text beside a SMILES is read from it. * marks the point of attachment. Heptadecanoyl = CCCCCCCCCCCCCCCCC(=O)*; 2Nal = N[C@@H](Cc1ccc2ccccc2c1)C(=O)O; Cha = N[C@@H](CC1CCCCC1)C(=O)O; Undecanoyl = CCCCCCCCCCC(=O)*; Nonanoyl = CCCCCCCCC(=O)*

Tests used:
[1] = system: Mycolicibacterium smegmatis; assay: Antibacterial activity against Mycobacterium smegmatis mc2 155 assessed as bacterial growth inhibition; format: functional
Bacillus subtilis = assay: Antibacterial activity against Bacillus subtilis assessed as bacterial growth inhibition; format: functional
Pseudomonas aeruginosa = assay: Antibacterial activity against Pseudomonas aeruginosa PAO1 assessed as bacterial growth inhibition; format: functional
Escherichia coli [2] = assay: Antibacterial activity against Escherichia coli DH5a assessed as bacterial growth inhibition; format: functional
Zymomonas mobilis = assay: Antibacterial activity against Zymomonas mobilis ATCC 10988 assessed as bacterial growth inhibition; format: functional
[3] = Hemolytic activity in human erythrocytes measured after 1 hrs by microplate reader analysis; format: toxicity, cell-based, Erythrocyte
Staphylococcus aureus [4] = assay: Antibacterial activity against methicillin resistant Staphylococcus aureus ATCC 33591 assessed as inhibition of bacterial growth incubated for 16 to 20 hrs by broth micro-dilution method; format: functional; settings: time 16-20 hrs
Enterococcus faecium = assay: Antibacterial activity against Vancomycin resistant Enterococcus faecium ATCC 700221 assessed as inhibition of bacterial growth incubated for 16 to 20 hrs by broth micro-dilution method; format: functional; settings: time 16-20 hrs
Escherichia coli [5] = assay: Antibacterial activity against Escherichia coli ATCC 25922 assessed as reduction in bacterial growth incubated for 18 to 20 hrs by Mueller Hinton broth dilution method; format: functional; settings: time 18-20 hrs
[6] = Hemolytic activity in human RBC; format: toxicity, cell-based, Erythrocyte; settings: red blood cells
Staphylococcus aureus [7] = assay: Antibacterial activity against Staphylococcus aureus ATCC 29213 assessed as bacterial growth inhibition measured after 18 hrs by CLSI protocol based two-fold serial microdilution method; format: functional
Escherichia coli [8] = assay: Antibacterial activity against Escherichia coli ATCC 25922 assessed as reduction in bacterial growth; format: functional
Staphylococcus aureus [9] = assay: Antibacterial activity against Staphylococcus aureus ATCC 25923 assessed as reduction in bacterial growth incubated for 48 hrs by Mueller-Hinton broth based microdilution method; format: functional
Escherichia coli [10] = assay: Antibacterial activity against Escherichia coli ATCC 25922 assessed as reduction in bacterial growth incubated for 48 hrs by Mueller-Hinton broth based microdilution method; format: functional

| Compound | MIC [1] [µM] | MIC (Bacillus subtilis) [µM] | MIC (Pseudomonas aeruginosa) [µM] | MIC (Escherichia coli [2]) [µM] | MIC (Zymomonas mobilis) [µM] | HC50 at 1 h [3] [µM] | MIC (Staphylococcus aureus [7]) [µM] | MIC (Escherichia coli [8]) [µM] | further results |
| --- | --- | --- | --- | --- | --- | --- | --- | --- | --- |
| CCCCCCCCC(=O)NCC(=O)N[C@@H](CC(C)C)C(=O)N[C@@H](CC(C)C)C(=O)N[C@@H](CCCCN)C(=O)N[C@H](C(=O)N[C@H](C(=O)N[C@@H](CCCCN)C(=O)N[C@@H](CCCCN)C(=O)N[C@@H](CC(C)C)C(=O)N[C@@H](CC(C)C)C(N)=O)[C@@H](C)CC)[C@@H](C)CC (Nonanoyl-GLLKIIKKLL-NH2) | 15.5 (≈ 19.8 µg/mL) | 5.43 (≈ 6.94 µg/mL) | 23.3 (≈ 29.7 µg/mL) | > 155 | 7.75 (≈ 9.9 µg/mL) | > 155 | – | – | – |
| CC(C)C[C@H](NC(=O)CN)C(=O)N[C@@H](CC(C)C)C(=O)N[C@@H](CCCCN)C(=O)N[C@@H](CCCCN)C(=O)N[C@@H](Cc1ccc2ccccc2c1)C(=O)N[C@@H](CCCCN)C(=O)N[C@@H](CCCCN)C(=O)N[C@@H](CC(C)C)C(=O)N[C@@H](CC1CCCCC1)C(N)=O (H-GLLKK[2Nal]KKL[Cha]-NH2) | – | – | – | – | – | – | – | – | MIC (Staphylococcus aureus [4]): 9.5 µM (≈ 12.1 µg/mL); MIC (Enterococcus faecium): 3.2 µM (≈ 4.09 µg/mL); MIC (Escherichia coli [5]): 16 µM (≈ 20.4 µg/mL) |
| CCCCCCCCCCC(=O)NCC(=O)N[C@@H](CC(C)C)C(=O)N[C@@H](CC(C)C)C(=O)N[C@@H](CCCCN)C(=O)N[C@H](C(=O)N[C@H](C(=O)N[C@@H](CCCCN)C(=O)N[C@@H](CCCCN)C(=O)N[C@@H](CC(C)C)C(=O)N[C@@H](CC(C)C)C(N)=O)[C@@H](C)CC)[C@@H](C)CC (Undecanoyl-GLLKIIKKLL-NH2) | 6.08 (≈ 7.94 µg/mL) | 26 (≈ 34 µg/mL) | 34.7 (≈ 45.3 µg/mL) | > 174 | 8.68 (≈ 11.3 µg/mL) | 38.7 | – | – | – |
| CC[C@H](C)[C@H](NC(=O)[C@H](CC(C)C)NC(=O)[C@H](CCCCN)NC(=O)[C@H](CC(C)C)NC(=O)[C@H](CC(C)C)NC(=O)CN)C(=O)N[C@@H](CCCCN)C(=O)N[C@H](C(=O)N[C@@H](CC(C)C)C(=O)N[C@@H](CC(C)C)C(N)=O)[C@@H](C)O (H-GLLKLIKTLL-NH2) | – | – | – | – | – | – | 1.8 (≈ 2 µg/mL) | 1.8 (≈ 2 µg/mL) | HC50 [6]: 11.7 µM |
| CC[C@H](C)[C@H](NC(=O)[C@@H](NC(=O)[C@H](CCCCN)NC(=O)[C@H](CC(C)C)NC(=O)[C@H](CC(C)C)NC(=O)CN)C(C)C)C(=O)N[C@@H](CCCCN)C(=O)N[C@H](C(=O)N[C@@H](CC(C)C)C(=O)N[C@@H](CC(C)C)C(N)=O)[C@@H](C)O (H-GLLKVIKTLL-NH2) | – | – | – | – | – | – | 2.7 (≈ 2.96 µg/mL) | 2.7 (≈ 2.96 µg/mL) | HC50 [6]: 54.7 µM |
| CCCCCCCCCCCCCCCCC(=O)NCC(=O)N[C@@H](CC(C)C)C(=O)N[C@@H](CC(C)C)C(=O)N[C@@H](CCCCN)C(=O)N[C@@H](CCCNC(=N)N)C(=O)N[C@H](C(=O)N[C@@H](CCCCN)C(=O)N[C@H](C(=O)N[C@@H](CC(C)C)C(=O)N[C@@H](CC(C)C)C(N)=O)[C@@H](C)O)[C@@H](C)CC (Heptadecanoyl-GLLKRIKTLL-NH2) | – | – | – | – | – | – | – | – | MIC (Staphylococcus aureus [9]): 4.67 µM (≈ 6.57 µg/mL); MIC (Escherichia coli [10]): 2.34 µM (≈ 3.29 µg/mL) |
| CCCCCCCCCCC(=O)NCC(=O)N[C@@H](CC(C)C)C(=O)N[C@@H](CC(C)C)C(=O)N[C@@H](CCCCN)C(=O)N[C@@H](CCCCN)C(=O)N[C@H](C(=O)N[C@@H](CCCCN)C(=O)N[C@@H](CCCNC(=N)N)C(=O)N[C@@H](CC(C)C)C(=O)N[C@@H](CC(C)C)C(N)=O)[C@@H](C)CC (Undecanoyl-GLLKKIKRLL-NH2) | 86.2 (≈ 116 µg/mL) | 86.2 (≈ 116 µg/mL) | 2.58 (≈ 3.48 µg/mL) | 34.4 (≈ 46.3 µg/mL) | 4.3 (≈ 5.8 µg/mL) | 38 | – | – | – |
| CC[C@H](C)[C@H](NC(=O)[C@H](CC(N)=O)NC(=O)[C@H](CCCCN)NC(=O)[C@H](CC(C)C)NC(=O)[C@H](CC(C)C)NC(=O)CN)C(=O)N[C@@H](CCCCN)C(=O)N[C@H](C(=O)N[C@@H](CC(C)C)C(=O)N[C@@H](CC(C)C)C(N)=O)[C@@H](C)O (H-GLLKNIKTLL-NH2) | – | – | – | – | – | – | 1.7 (≈ 1.89 µg/mL) | 1.7 (≈ 1.89 µg/mL) | – |
